Data as given in paper PMC3940197, “Identification of the first small-molecule ligand of the neuronal receptor sortilin and structure determination of the receptor–ligand complex” (Acta Crystallographica Section D: Biological Crystallography, 2014).

Key:
sortilin [1] = target: T1, sortilin (Homo sapiens, UniProt Q99523); test: 3H-neurotensin-binding sortilin scintillation proximity assay (SPA); settings: for IC50: 150 nM sortilin, 5 nM 3H-neurotensin, averages of at least four determinations, read-out: IC50 (displacement of 3H-neurotensin binding to sortilin); for activity in SPA assay (in words): structure-activity relationship relative to hit 1a
T1 construct: The extracellular Vps10p domain of sortilin was overexpressed in HEK293F cells and purified from the medium; made in house; host or cells: HEK293F
T1 sequence (Q99523 78-755 limits assumed): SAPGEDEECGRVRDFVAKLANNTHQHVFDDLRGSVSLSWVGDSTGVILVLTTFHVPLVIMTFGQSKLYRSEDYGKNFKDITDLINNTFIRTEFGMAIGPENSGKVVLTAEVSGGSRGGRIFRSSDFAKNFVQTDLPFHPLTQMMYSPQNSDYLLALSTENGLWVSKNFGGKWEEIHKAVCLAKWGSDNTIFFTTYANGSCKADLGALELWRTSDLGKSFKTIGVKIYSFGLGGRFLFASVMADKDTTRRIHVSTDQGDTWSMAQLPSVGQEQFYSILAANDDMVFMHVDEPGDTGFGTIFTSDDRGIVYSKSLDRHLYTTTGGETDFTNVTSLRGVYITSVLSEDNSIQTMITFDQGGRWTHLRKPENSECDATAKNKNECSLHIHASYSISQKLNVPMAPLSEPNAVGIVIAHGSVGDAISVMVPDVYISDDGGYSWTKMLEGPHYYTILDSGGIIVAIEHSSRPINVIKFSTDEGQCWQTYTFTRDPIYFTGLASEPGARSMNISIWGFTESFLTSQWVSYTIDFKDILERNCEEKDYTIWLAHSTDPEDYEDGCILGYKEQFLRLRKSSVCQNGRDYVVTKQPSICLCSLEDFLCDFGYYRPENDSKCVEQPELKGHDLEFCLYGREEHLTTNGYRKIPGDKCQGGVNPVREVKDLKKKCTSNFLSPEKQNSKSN
Protocol: The open reading frame of human sortilin including the endogenous signal peptide to residue 723 was amplified by PCR and cloned into the pCEP-pu vector with XbaI and XhoI. The primers were designed to include a C-terminal factor Xa site followed by a hexahistidine tag. HEK293F cells were transfected with 900 µg plasmid, applying 900 µl FreeStyle MAX reagent (Invitrogen) according to the manufacturer’s instructions, and were grown in 900 ml FreeStyle 293 medium (Invitrogen) in a 3 l Erlenmeyer flask for 7 d. The medium was harvested by centrifugation at 3700g for 15 min, filtered through a 0.40 µm filter and the pH was adjusted by supplementation with Tris–HCl pH 8.0 to a final concentration of 50 mM. A 5 ml Ni–NTA column (GE Healthcare) was equilibrated in buffer A (50 mM Tris–HCl pH 8.0, 150 mM NaCl) and the medium was recirculated over the column overnight. The column was washed with five column volumes of wash buffer (50 mM Tris–HCl pH 8.0, 150 mM NaCl, 10 mM imidazole) and sortilin was eluted with a ten-column-volume imidazole gradient (10–250 mM imidazole). Fractions containing sortilin were pooled and concentrated by […] (Vivaspin 20, 10 kDa cutoff, Sartorius). The sortilin was applied onto a Superdex 200 10/300 GL column (GE Healthcare) equilibrated in buffer A. Fractions containing sortilin were pooled, concentrated to a final concentration of 5 mg ml^−1, flash-frozen in liquid nitrogen and stored at −80°C.
The compound affinity was determined by measuring the displacement of ^3H-neurotensin binding to sortilin using a scintillation proximity assay (SPA). Experiments were performed in assay buffer (50 mM HEPES pH 7.4, 100 mM NaCl, 2.0 mM CaCl2, 0.1% BSA, 0.1% Tween-20) with a total volume of 40 µl. The compound was pre-incubated for 30 min at room temperature with 150 nM sortilin before 5 nM ^3H-neurotensin and Ni-chelate imaging beads (Perkin Elmer) were added. After 6 h, the plate was read on a ViewLux with 360 s exposure time. Unlabelled neurotensin and a DMSO blank were used as positive and negative controls, respectively. Dose-response evaluation of compounds was performed with ten concentrations of 1a–1h and AF40431 (covering concentrations between 2.5 nM and 50 µM). The half-maximal inhibitory concentration (IC50) values were calculated by nonlinear regression using the sigmoid concentration response (variable slope) in XLfit 4 (IDBS, UK). All values reported are the averages of at least four determinations.

NTSR1 = NTSR1 (Homo sapiens, UniProt P30989); test: Competition of NTS binding to NTSR1; settings: data not shown
NTSR1, sequence (P30989 whole entry, species assumed): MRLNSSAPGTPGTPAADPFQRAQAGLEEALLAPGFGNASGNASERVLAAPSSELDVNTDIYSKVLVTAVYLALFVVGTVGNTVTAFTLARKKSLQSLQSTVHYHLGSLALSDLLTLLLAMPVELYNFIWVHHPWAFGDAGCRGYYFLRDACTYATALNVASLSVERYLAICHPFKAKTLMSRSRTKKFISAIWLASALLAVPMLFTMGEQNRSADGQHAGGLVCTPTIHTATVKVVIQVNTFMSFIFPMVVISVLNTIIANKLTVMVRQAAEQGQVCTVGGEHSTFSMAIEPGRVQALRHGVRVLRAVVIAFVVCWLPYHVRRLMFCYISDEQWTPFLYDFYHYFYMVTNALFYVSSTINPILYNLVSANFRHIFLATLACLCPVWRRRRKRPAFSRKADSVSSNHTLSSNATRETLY

sortilin [2] = target: T2, sortilin (Homo sapiens, UniProt Q99523); test: Isothermal titration calorimetry (ITC) of binding to sortilin; settings: 25°C, PBS pH 7.4, 4% DMSO, read-out: dissociation constant (Kd)
T2 construct: The extracellular Vps10p domain of sortilin was overexpressed in HEK293F cells and purified from the medium; made in house; host or cells: HEK293F
T2 sequence (Q99523 78-756): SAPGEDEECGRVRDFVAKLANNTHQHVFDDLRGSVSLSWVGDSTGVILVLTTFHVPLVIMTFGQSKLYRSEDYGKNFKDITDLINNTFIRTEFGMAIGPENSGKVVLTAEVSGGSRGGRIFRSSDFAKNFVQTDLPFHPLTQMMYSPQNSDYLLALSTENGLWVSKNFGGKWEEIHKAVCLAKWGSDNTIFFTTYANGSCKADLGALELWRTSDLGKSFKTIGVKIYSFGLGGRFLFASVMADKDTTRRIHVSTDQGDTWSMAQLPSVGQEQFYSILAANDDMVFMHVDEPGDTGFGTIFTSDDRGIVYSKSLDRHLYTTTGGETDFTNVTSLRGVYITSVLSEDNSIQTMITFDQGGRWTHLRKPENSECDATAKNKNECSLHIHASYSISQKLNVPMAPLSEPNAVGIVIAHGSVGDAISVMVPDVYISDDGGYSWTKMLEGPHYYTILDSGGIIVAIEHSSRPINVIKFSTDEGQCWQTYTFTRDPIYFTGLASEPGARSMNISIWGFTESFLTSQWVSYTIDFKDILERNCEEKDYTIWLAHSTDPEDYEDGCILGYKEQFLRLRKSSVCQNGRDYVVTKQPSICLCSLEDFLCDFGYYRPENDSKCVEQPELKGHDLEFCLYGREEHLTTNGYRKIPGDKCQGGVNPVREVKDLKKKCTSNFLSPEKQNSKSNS
Protocol: The open reading frame of human sortilin including the endogenous signal peptide to residue 723 was amplified by PCR and cloned into the pCEP-pu vector with XbaI and XhoI. The primers were designed to include a C-terminal factor Xa site followed by a hexahistidine tag. HEK293F cells were transfected with 900 µg plasmid, applying 900 µl FreeStyle MAX reagent (Invitrogen) according to the manufacturer’s instructions, and were grown in 900 ml FreeStyle 293 medium (Invitrogen) in a 3 l Erlenmeyer flask for 7 d. The medium was harvested by centrifugation at 3700g for 15 min, filtered through a 0.40 µm filter and the pH was adjusted by supplementation with Tris–HCl pH 8.0 to a final concentration of 50 mM. A 5 ml Ni–NTA column (GE Healthcare) was equilibrated in buffer A (50 mM Tris–HCl pH 8.0, 150 mM NaCl) and the medium was recirculated over the column overnight. […]
The binding of AF40431 to sortilin was measured by isothermal titration calorimetry (ITC). […] Heat evolving from dilution was measured by injecting the ligand into PBS supplemented with 4% DMSO. […] Finally, the binding stoichiometry (n), equilibrium dissociation constant (K d), molar enthalpy and entropy changes for the binding processes were determined by analyzing the titration data using Origin software (OriginLab, Northampton, Massachusetts, USA).

proNGF (Homo sapiens) = proNGF (Homo sapiens) (UniProt P01138); settings: cited from earlier work
proNGF (Homo sapiens), sequence (P01138 122-241): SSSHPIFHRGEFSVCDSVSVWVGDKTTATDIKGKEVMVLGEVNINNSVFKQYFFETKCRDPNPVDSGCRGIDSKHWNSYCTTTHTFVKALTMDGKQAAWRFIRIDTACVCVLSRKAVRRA

Molecule	IC50 (sortilin [1]) [µM]	activity in SPA assay (in words) (sortilin [1])	IC50 (NTSR1) [µM]	Kd (sortilin [2]) [µM]	Kd (proNGF (Homo sapiens)) [µM]
Cc1cc(=O)oc2c(CNC(Cc3ccccc3)C(=O)O)c(O)ccc12 (stereo not shown) [Compound 1g]	> 50	activity was ablated			
Cc1cc(=O)oc2c(CNC(CC(C)(C)C)C(=O)O)c(O)ccc12 (stereo not shown) [Compound 1c]	3.1 ± 1.1	activity was retained			
Cc1cc(=O)oc2c(CNC(CC(C)C)C(=O)O)c(O)ccc12 (stereo not shown) [Compound 1a]	1.8				
CCC(C)C(NCc1c(O)ccc2c(C)cc(=O)oc12)C(=O)O (stereo not shown) [Compound 1b]	6.1 ± 2.7	activity was retained			
Cc1cc(=O)oc2c(CN[C@H](CC(C)C)C(=O)O)c(O)ccc12 [Compound 1h]	> 50	inactive			
Cc1cc(=O)oc2c(CN[C@@H](CC(C)C)C(=O)O)c(O)ccc12 [AF40431]	4.4 ± 0.7		> 50	0.7	
Sortilin (from UniProt Q99523)					0.00016

Second part, led by results:

IC50 (sortilin [1]) [µM]	activity in SPA assay (in words) (sortilin [1])	IC50 (NTSR1) [µM]	Kd (sortilin [2]) [µM]	Molecule	Kd (proNGF (Homo sapiens)) [µM]
> 50	activity was ablated			Cc1cc(=O)oc2c(CNC(C)C(=O)O)c(O)ccc12 (stereo not shown) [Compound 1f]	
1.7 ± 0.3	activity was retained			Cc1cc(=O)oc2c(CNC(C(=O)O)C3CCCCC3)c(O)ccc12 (stereo not shown) [Compound 1d]	
> 50	activity was ablated			Cc1cc(=O)oc2c(CNC(C(=O)O)C(C)C)c(O)ccc12 (stereo not shown) [Compound 1e]	
